Article PMC12648010 (Acta Pharmaceutica Sinica. B, 2025)

Target: T1, SLC38A9 (Homo sapiens, UniProt Q8NBW4)
T1 sequence (Q8NBW4 1-561): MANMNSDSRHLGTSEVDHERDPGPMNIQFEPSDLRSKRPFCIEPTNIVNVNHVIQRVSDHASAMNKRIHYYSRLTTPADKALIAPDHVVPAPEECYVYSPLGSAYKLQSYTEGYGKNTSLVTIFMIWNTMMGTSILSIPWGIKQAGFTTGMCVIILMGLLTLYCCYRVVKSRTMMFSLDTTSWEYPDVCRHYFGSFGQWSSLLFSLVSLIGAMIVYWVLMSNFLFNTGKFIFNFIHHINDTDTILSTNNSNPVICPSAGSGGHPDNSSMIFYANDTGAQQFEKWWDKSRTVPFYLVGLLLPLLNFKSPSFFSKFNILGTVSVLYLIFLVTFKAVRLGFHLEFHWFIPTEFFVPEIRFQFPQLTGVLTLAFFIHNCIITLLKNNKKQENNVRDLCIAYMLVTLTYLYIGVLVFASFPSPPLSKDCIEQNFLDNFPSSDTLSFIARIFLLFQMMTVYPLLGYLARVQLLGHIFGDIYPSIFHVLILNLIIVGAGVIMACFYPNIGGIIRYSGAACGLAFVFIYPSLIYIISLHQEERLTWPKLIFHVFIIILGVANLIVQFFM
Assay: SPR
Assay type: binding

Compound: C=CC(=O)Nc1cccc2[nH]nc(-c3nc4ccc(N5CCN(C)CC5)cc4[nH]3)c12 [LLAD, N-(3-(6-(4-Methylpiperazin-1-yl) -1H-benzo[d]imidazole-2-yl)-1H-indazol-4-yl) acrylamide]
- Kd: 1290 nM
